Assay results published in patent US20210338609A1, “COMPOSITIONS FOR ADMINISTRATION TO ANIMALS TO INCREASE GUT NON-PROTEIN NITROGEN LEVELS” (D.I.T Technologies Ltd, priority 2018, published 2021).
Read-outs that look alike come from different tables or passages of the source.

Target: T1, urease (Canavalia ensiformis, UniProt P07374)
T1 construct: purchased Siemens Azostix reagent test strip
Assay type: biochemical
Conditions: for urea converted to ammonia: within 60 seconds
From the text: In an embodiment, the physiologically acceptable composition may have a pH of substantially 2. […] The capacity of a composition containing urea to produce ammonia toxicity in ruminant animals can be measured with a urease test strip. These strips contain the enzyme urease. Urease is specific to urea and catalyses the breakdown to ammonia, and the strip undergoes a colour change when the urease strip is exposed to ammonia.
These strips contain the enzyme urease and the indicator bromothymol blue. Urease is specific to urea and breaks it down to ammonia. […] Therefore, the strip turns from yellow to green when the urease strip is exposed to urea. One strip was exposed to a solution of urea at the rate of 1 gram per litre.

T1 sequence (P07374 whole entry, looked up): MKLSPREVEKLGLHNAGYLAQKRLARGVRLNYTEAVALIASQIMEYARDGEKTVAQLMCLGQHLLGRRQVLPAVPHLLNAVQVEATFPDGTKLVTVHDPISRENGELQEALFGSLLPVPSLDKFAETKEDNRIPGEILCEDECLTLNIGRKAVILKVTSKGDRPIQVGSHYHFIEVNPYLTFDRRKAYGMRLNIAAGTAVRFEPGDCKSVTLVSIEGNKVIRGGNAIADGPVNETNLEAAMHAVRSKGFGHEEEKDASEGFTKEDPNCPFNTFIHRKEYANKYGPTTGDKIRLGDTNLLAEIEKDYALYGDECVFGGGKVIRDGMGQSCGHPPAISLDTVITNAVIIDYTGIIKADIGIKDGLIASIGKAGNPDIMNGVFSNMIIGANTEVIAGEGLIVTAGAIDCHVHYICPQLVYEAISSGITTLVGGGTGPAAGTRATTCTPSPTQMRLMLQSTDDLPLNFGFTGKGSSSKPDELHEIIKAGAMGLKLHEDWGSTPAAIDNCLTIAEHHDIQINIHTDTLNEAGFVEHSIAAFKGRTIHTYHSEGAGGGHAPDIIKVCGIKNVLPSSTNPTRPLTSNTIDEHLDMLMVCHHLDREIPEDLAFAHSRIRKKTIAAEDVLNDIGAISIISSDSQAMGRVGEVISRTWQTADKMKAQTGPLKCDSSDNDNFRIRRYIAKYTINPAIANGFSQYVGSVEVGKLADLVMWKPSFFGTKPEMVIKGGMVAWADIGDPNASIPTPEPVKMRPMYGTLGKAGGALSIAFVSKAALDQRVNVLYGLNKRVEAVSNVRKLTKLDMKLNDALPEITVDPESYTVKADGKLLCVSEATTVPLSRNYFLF

Compound	colour change of urease test strip (ammonia production) (urea phosphate at 5 grams per litre)	urea converted to ammonia (urea phosphate, 5 grams per litre)	colour change of urease test strip (ammonia production) (solution of urea at 1 gram per litre)	urea converted to ammonia (urea only mix, 1 gram per litre)
NC(N)=O.O=P(O)(O)O [urea phosphate]	unchanged	none	–	–
NC(N)=O [urea]	–	–	turned from the unexposed yellow colour to a deep green	all
